Laboratory results from patent publication US20080138284A1, “Novel Peptides That Promote Lipid Efflux” (Lipid Sciences, Inc., priority 2006, published 2008).
Ends that are not written are not given here.

Tests used:
[1] = system: HeLa cells transfected with only a hygromycin-resistant control plasmid (control cells); test: Cholesterol and phospholipid efflux from control HeLa cells (incl. time course); assay type: cell-based, human; details: for cholesterol efflux from control cells, time course: rate compared with ABCA1 cells
Procedure: HeLa cells stably transfected with human ABCA1 cDNA (ABCA1 cells) and HeLa cells transfected with only a hygromycin-resistant control plasmid (control cells) are produced and grown in α-modified Eagle's medium (aMEM) plus 10% fetal calf serum, as described by Remaley et al. (Biochem. Biophys. Res. Commun. 280:818-823, 2001). Cholesterol and phospholipid efflux is performed for 18 hours on noncholesterol-loaded cells radiolabeled with either cholesterol or choline (Remaley et al., Arterioscler. Thromb. Vasc. Biol. 17:1813-1821, 1997). Percentage efflux is calculated after subtracting the radioactive counts in the blank media (aMEM plus 1 mg/ml of BSA), and expressed as the percent of total radioactive counts removed from the cells during the efflux period.
ABCA1 cells are used to assess the ability of apoA-I and synthetic peptides to efflux lipid from cells. […] The peptides of the present invention efflux approximately 2- to 4-fold more cholesterol and phospholipid from ABCA1 cells than from control cells. Both the peptides of the present invention and apoA-I began to show saturation for lipid efflux at approximately the same protein concentration of 10 μg/ml.
Cholesterol efflux from ABCA1 cells to apoA-I is first detectable after 2 hours and increases throughout the 30 hour efflux period. […] Overall, the kinetics for cholesterol efflux to peptides of the present invention from ABCA1 cells is similar to that of apoA-I, except that cholesterol efflux is first detectable after 30 minutes.

[2] = system: apoE knockout mice on a chow diet and LDL receptor knockout mice on a western high fat diet; test: Aortic arch atherosclerosis in knockout mice; assay type: in vivo, mouse; details: 2 mg/kg to 50 mg/kg iv or ip, 2 to 3 times per week, approximately 6 weeks
Procedure: The ability of the peptides of the present invention and associated fragments are tested in apoE knockout mice on a chow diet and LDL receptor knockout mice on a western high fat diet to determine the effect of these peptides to reduce atherosclerosis in a mouse model system. One or more of the peptides of the present invention, in a range of concentration of 2 mg/kg to 50 mg/kg, is injected intravenously (iv) or intraperitoneally (ip) 2 to 3 times per week over a period of approximately 6 weeks. Aortic atherosclerosis is quantitated in the aortic arch before administration of the peptides and after the 6 week period of administration. (Wu et al., J. Biol. Chem.; 2004: 279, 22913-22925).

| Substance | removal of cholesterol and phospholipids from control cells relative to Apo A-I [1] | cholesterol efflux from control cells, time course [1] | atherosclerosis in the aortic arch [2] |
| --- | --- | --- | --- |
| Ac-Gly Glu Glu Met Arg Asp Arg Ala Arg Ala His Val Asp Ala Leu Arg Thr His Ala Lys Pro Val Leu Leu Glu Ser Phe Lys Val Ser Phe Leu Ser Ala Leu Glu Glu Tyr Thr Lys Lys-NH2 (Ac-GEEMRDRARAHVDALRTHAKPVLLESFKVSFLSALEEYTKK-NH2) [SEQ ID NO:354] | comparable to or more than that removed by Apo A-I | promote cholesterol efflux from control cells but at a lower rate | reduce atherosclerosis in the aortic arch |
| Ac-Leu Glu Ser Ala Lys Val Ser Ala Leu Ser Ala Leu Glu Glu Ala Thr Lys Lys Ala Lys Pro Val Leu Leu Glu Ser Phe Lys Val Ser Phe Leu Ser Ala Leu Glu Glu Tyr Thr Lys Lys-NH2 (Ac-LESAKVSALSALEEATKKAKPVLLESFKVSFLSALEEYTKK-NH2) [SEQ ID NO:372] | comparable to or more than that removed by Apo A-I | promote cholesterol efflux from control cells but at a lower rate | reduce atherosclerosis in the aortic arch |
| Ac-Ser Asp Glu Leu Arg Gln Arg Leu Ala Ala Arg Leu Glu Ala Leu Lys Glu Asn Ala Lys Pro Val Leu Leu Glu Ser Phe Lys Val Ser Phe Leu Ser Ala Leu Glu Glu Tyr Thr Lys Lys-NH2 (Ac-SDELRQRLAARLEALKENAKPVLLESFKVSFLSALEEYTKK-NH2) [SEQ ID NO:355] | comparable to or more than that removed by Apo A-I | promote cholesterol efflux from control cells but at a lower rate | reduce atherosclerosis in the aortic arch |
| GEEMRDRARAHVDALRTHAKPVLLESFKVSFLSALEEYTKK [SEQ ID NO:72] | comparable to or more than that removed by Apo A-I | promote cholesterol efflux from control cells but at a lower rate | reduce atherosclerosis in the aortic arch |
| LESAKVSALSALEEATKKAKPVLLESFKVSFLSALEEYTKK [SEQ ID NO:89] | comparable to or more than that removed by Apo A-I | promote cholesterol efflux from control cells but at a lower rate | reduce atherosclerosis in the aortic arch |
| SDELRQRLAARLEALKENAKPVLLESFKVSFLSALEEYTKK [SEQ ID NO:80] | comparable to or more than that removed by Apo A-I | promote cholesterol efflux from control cells but at a lower rate | reduce atherosclerosis in the aortic arch |
